What all share (assay type): biochemical
In assay [1] the target is T1, thrombin (Bos taurus, UniProt P00735).
T1 construct: 100 μl 200 mIU/ml thrombin in 6% BSA-PBS (without Polybrene®)
Put plainly: Inhibitory time point 50% (ITP50) of 10 IU/ml heparin-thrombin interaction. The following applies: 10 IU/ml final heparin. The method, then:
50 μl P-Pool were incubated with 100 μl 200 miU/ml thrombin in 6% BSA-PBS (without Polybrene®). At 0 min (prior to thrombin addition) and 0.5-11 min reaction time (at RT) 10 μl 160 IU/ml heparin in 6% BSA-PBS was added (final heparin conc. in plasma+thrombin reagent=10 IU/ml; this heparin conc. increased the absorbance by 20 mA; all test results were corrected by this heparin induced turbidity increase). The turbidity increase at 405 nm was determined immediately after each heparin addition step and as a function of incubation time.
To determine the heparin addition time point (at RT) that is needed to decrease the 5 min, 10 min, 15 min or 20 min turbidity increase by 50% (inhibitory time point 50%=ITP), 50 μl P-Pool were incubated with 100 μl 200 mIU/ml thrombin in 6% BSA-PBS (without Polybrene®). After 0 s (prior to thrombin addition) and 10-140 s (in 10 s intervals) 10 μl 160 IU/ml heparin in 6% BSA-PBS were added. The turbidity increase at 405 nm as a function of incubation time (3-20 min) was determined.

The target in assay [2] is T1, thrombin. Put plainly: Inhibitory concentration 50% (IC50) of heparin against thrombin, FIFTA turbidity without Polybrene. The following applies: FIFTA system without Polybrene. The method, then: 50 μl 100% Pool were added to 10 μl 0-160 IU/ml heparin. 100 μl 200 mIU/ml thrombin in 6% BSA-PBS (without Polybrene®) were added and the increase in absorbance at 405 nm was followed.

In assay [3] the target is T2, fibrinogen (Homo sapiens, UniProt P02671+P02675+P02679).
T2 construct: pooled patient plasma (P-Pool, n=32 single plasmas); from tissue; host or cells: pooled citrated patient plasma (P-Pool, Fbgen-Pool-Plasma)
T2 sequence (P02671 20-644 isoform P02671-2 limits assumed): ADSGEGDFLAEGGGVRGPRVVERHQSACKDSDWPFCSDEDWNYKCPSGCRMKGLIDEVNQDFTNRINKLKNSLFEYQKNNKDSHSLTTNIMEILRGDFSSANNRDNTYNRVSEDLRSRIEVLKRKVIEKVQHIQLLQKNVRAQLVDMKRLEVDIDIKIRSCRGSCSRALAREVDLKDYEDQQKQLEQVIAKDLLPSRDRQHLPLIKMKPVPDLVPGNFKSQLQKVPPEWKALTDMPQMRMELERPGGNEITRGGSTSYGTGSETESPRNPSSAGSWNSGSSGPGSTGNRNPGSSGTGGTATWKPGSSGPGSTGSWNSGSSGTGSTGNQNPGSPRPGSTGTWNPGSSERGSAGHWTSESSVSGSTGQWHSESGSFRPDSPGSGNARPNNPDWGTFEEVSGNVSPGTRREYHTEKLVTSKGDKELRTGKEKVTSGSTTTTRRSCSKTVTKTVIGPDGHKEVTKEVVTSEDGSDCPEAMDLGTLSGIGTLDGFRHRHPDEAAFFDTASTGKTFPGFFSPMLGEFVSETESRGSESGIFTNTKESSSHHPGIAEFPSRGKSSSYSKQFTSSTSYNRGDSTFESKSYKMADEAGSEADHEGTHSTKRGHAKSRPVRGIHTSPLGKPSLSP
T2 sequence (P02675 31-491): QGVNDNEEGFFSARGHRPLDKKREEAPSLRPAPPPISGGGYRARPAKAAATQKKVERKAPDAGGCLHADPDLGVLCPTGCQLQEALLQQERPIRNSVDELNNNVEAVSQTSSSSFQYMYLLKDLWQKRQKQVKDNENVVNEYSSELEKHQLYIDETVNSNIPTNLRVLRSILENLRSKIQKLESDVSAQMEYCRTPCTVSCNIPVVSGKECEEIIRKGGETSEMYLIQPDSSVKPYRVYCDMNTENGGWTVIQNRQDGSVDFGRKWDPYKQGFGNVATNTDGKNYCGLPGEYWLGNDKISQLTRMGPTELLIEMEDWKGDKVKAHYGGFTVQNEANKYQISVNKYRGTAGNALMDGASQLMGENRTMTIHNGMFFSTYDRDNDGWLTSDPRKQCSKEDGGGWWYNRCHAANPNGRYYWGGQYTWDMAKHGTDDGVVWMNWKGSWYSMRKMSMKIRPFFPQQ
T2 sequence (P02679 27-437 isoform P02679-2 limits assumed): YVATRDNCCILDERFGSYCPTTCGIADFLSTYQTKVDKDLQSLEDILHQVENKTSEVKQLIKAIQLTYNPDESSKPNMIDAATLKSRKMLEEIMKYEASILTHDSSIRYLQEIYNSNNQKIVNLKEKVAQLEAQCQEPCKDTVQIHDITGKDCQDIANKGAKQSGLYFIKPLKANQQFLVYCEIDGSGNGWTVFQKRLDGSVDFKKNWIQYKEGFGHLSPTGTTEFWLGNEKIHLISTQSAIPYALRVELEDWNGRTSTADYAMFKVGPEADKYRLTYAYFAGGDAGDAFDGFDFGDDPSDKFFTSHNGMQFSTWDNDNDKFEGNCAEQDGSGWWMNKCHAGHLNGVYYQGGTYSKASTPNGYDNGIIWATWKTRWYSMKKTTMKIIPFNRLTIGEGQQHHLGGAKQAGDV
Put plainly: FIFTA of chloramine-T oxidized / EDTA-supplemented plasma. The following applies: 60 min RT, P-Pool and EDTA supplemented P-Pool; read-out: chloramine-T concentration that inactivates 50% of fibrinogen in the FIFTA. The protocol:
The absorption at 405 nm is immediately measured (base value) and exactly after 5 min, if the reaction is performed at room temperature (23° C.). If the reaction is performed at 37° C., the second value is measured after 2 min. A microtiterplate reader (Milenia, DPC, Los Angeles, USA) is used. The increase in absorption (ΔA) is determined and the results are standardized against a pooled plasma of known, preferably of 100% of norm, fibrinogen-activity (Table 1).
(§1) 25 μl P-Pool or P-Pool supplemented with 8.6 mM (3.2 g/l) EDTA were incubated with 25 μl 0-89 mM chloramine-T® in PBS for 60 min at RT. Then the FIATA and the FIFTA were performed. For the FIATA, 25 μl PBS were added and the absorbance at 405 nm was determined (base value). 50 μl 4.4 mM vancomycin in PBS were added and after 1 min (RT) the absorbance at 405 nm was determined again (Table 1). […] 100% control=P-Pool without oxidant.
(§2) 25 μl P-Pool was incubated with 25 μl PBS or with 25 μl 2 mM CT in PBS. After 60 min RT, 25 μl 0-172 mM EDTA in PBS was added. After 5 min RT the FIATA and the FIFTA were performed as indicated in 2.7.

In assay [4] the test system is fibrinogen. Put plainly: FIATA (vancomycin reactivity) of chloramine-T oxidized / EDTA-supplemented plasma. The settings on record: EDTA-plasmas oxidized at 10-20 mM chloramine-T. The protocol: To 25 μl plasma 50 μl PBS are added and the absorbance (405 nm) is determined (base value). Then 50 μl 4.4 mM vancomycin in PBS are added. The absorbance at 405 nm is determined after 2 min, if the reaction is performed at room temperature (23° C.). If the reaction is performed at 37° C., the second value is determined after 1 min. A microtiterplate reader (Milenia, DPC, Los Angeles, USA) is used. The increase in absorption (ΔA) is determined and the results are standardized against a pooled plasma of known, preferably of 100% of norm, fibrinogen-concentration, and against 0.9% NaCl (zero-value of turbidity) (Table 2).
as §1, §2

For assay [5], the target named is T3, fibrinogen in human plasma (Homo sapiens, UniProt P02671+P02675+P02679).
T3 construct: 200 μl of 256% of norm active fibrinogen in P-Pool; from tissue; host or cells: pooled citrated human patient plasma (P-Pool / Fbgen-Pool)
T3 sequence (P02671 20-629 isoform P02671-2 limits assumed): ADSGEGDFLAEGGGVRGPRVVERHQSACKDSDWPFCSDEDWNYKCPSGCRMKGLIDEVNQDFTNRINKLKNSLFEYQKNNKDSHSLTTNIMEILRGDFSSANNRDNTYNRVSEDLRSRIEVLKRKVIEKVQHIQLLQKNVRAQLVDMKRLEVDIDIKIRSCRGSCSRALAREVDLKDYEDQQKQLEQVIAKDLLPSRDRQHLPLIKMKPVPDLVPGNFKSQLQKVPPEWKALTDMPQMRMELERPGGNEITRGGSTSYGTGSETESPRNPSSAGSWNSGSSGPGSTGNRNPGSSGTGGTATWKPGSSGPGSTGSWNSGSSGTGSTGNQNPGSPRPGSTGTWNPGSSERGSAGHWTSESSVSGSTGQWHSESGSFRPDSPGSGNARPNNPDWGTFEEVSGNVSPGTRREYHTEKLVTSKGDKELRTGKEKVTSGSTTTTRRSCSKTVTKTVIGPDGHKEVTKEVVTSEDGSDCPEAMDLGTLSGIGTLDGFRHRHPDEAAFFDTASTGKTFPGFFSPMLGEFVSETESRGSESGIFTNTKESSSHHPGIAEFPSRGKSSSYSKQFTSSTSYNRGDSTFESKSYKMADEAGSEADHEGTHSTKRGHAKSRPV
T3 sequence (P02675 31-491): T2 sequence (P02675 31-491)
T3 sequence (P02679 27-437 isoform P02679-2 limits assumed): T2 sequence (P02679 27-437 isoform P02679-2 limits assumed)
The assay can be described thus: Inactivation of fibrinogen by vancomycin or chloramine-T (FIFTA read-out). The settings on record: 15 min 37° C. incubation in plasma, then FIFTA; read-out: IC50 against plasmatic fibrinogen. The method, then: 200 μl of 256% of norm active fibrinogen in P-Pool were incubated with 25 μl 0-100 mM vancomycin or 0-100 mM chloramine-T® in aqua dest. for 15 min (37° C.). 50 μl samples of these reaction mixtures were withdrawn and incubated with 100 μl 200 mIU/ml thrombin, 400 μg/ml Polybrene®, 6% BSA-PBS. The results were standardized by simultaneous analysis of 144% of norm active fibrinogen in P-Pool.

Bounds are passed on as bounds.

As to heparin, the “time window in which heparin can inhibit fibrin generation” value in assay [1] (RT) is at most 2 min. Also, the “time point of heparin addition that results into a 50% decrease of ΔA (ITP50)” value in assay [1] (ΔA at 5-20 min incubation time (RT)) was “approximately 30 s”. In addition, in assay [2], the “heparin concentrations that completely inhibit thrombin” value was at least 0.63 IU/ml.

With `Cc1ccc(S(=O)(=O)[N-]Cl)cc1.[Na+]` [chloramine-T®, chloramine-T], the figures for the IC50 in assay [3] and in assay [5] were 2000 µM and around 2000 µM, respectively. Moreover, in assay [4], the “increase of reactivity with vancomycin, % of the citrate control value” came to 40%.

Values taken from patent publication US7741124B2, “Detection procedures for fibrinogen and/or fibrinogen derivatives” (priority 2003, dated 2010).
